Measurements as given in patent publication US20180311357A1, “EXTERNAL PREPARATION AND METHOD FOR PRODUCING SAME” (SEKISUI CHEMICAL CO., LTD., priority 2015, published 2018).

Conditions: pH 7
Protocol: In the present invention, the octanol/water partition coefficient is obtained as follows. After the chemical is added into a flask containing octanol and an aqueous buffer at pH 7, the mixture is shaken. Based on the chemical concentration in each phase, the octanol/water partition coefficient is calculated by the following equation. Octanol/water partition coefficient=Log 10(concentration in octanol phase/concentration in aqueous phase)

SMILES: O.O.O.O.O.O=P([O-])(O)C(O)(Cc1cccnc1)P(=O)(O)O.O=P([O-])(O)C(O)(Cc1cccnc1)P(=O)(O)O.[Na+].[Na+] [hemipenta hydrate risedronate monosodium]
- octanol/water partition coefficient: −5.0
